For this assay, the system named is MV-4-11 cells. Description: Gene expression microarray analysis (Affymetrix PrimeView) and GSEA. Type of assay: cell-based, human. Details: RFU PODN (11730768_x_at) / Fold change /veh PODN (11730768_x_at) / RFU LINC00158 (11744669_a_at) / Fold change /veh LINC00158 (11744669_a_at) / RFU DUSP10 (11751237_a_at) / Fold change /veh DUSP10 (11751237_a_at) / RFU ID3 (11757404_x_at) / Fold change /veh ID3 (11757404_x_at) / RFU PLEKHG5 (11737974_s_at) / Fold change /veh PLEKHG5 (11737974_s_at) / RFU LRRC4B (11730491_at) / Fold change /veh LRRC4B (11730491_at) / RFU GIMAP4 (11747438_a_at) / Fold change /veh GIMAP4 (11747438_a_at) / RFU KRT8 (11758183_x_at) / Fold change /veh KRT8 (11758183_x_at) / RFU CNN1 (11734310_a_at) / Fold change /veh CNN1 (11734310_a_at) / RFU VPS37D (11726825_at) / Fold change /veh VPS37D (11726825_at) / RFU C10orf10 (11716522_x_at) / Fold change /veh C10orf10 (11716522_x_at) / RFU KIR2DL2 /// KIR2DL4 /// KIR2DL5A /// KIR2DL5B /// KIR2DS1 /// KIR2DS2 /// KIR2DS3 /// KIR2DS4 /// KIR3DL3 /// KIR3DL3 /// KIR3DS1 (11738374_at) / Fold change /veh KIR2DL2 /// KIR2DL4 /// KIR2DL5A /// KIR2DL5B /// KIR2DS1 /// KIR2DS2 /// KIR2DS3 /// KIR2DS4 /// KIR3DL3 /// KIR3DL3 /// KIR3DS1 (11738374_at) / RFU C1QL1 (11718748_at) / Fold change /veh C1QL1 (11718748_at) / RFU TMPRSS4 (11747572_a_at) / Fold change /veh TMPRSS4 (11747572_a_at) / RFU HAMP (11756126_x_at) / Fold change /veh HAMP (11756126_x_at) / RFU RNFT2 (11725882_a_at) / Fold change /veh RNFT2 (11725882_a_at) / RFU NR4A2 (11747474_a_at) / Fold change /veh NR4A2 (11747474_a_at) / RFU ABCC12 (11746883_a_at) / Fold change /veh ABCC12 (11746883_a_at) / RFU TMEM136 (11760407_x_at) / Fold change /veh TMEM136 (11760407_x_at) / RFU CLDN22 /// WWC2 (11732394_at) / Fold change /veh CLDN22 /// WWC2 (11732394_at) / RFU HLA-DPB1 (11760878_x_at) / Fold change /veh HLA-DPB1 (11760878_x_at) / RFU SPINT1 (11716480_a_at) / Fold change /veh SPINT1 (11716480_a_at) / RFU GAP43 (11754022_s_at) / Fold change /veh GAP43 (11754022_s_at) / RFU A4GNT (11735810_at) / Fold change /veh A4GNT (11735810_at) / RFU PRB3 (11715151_x_at) / Fold change /veh PRB3 (11715151_x_at) / RFU TUBB4B (11761932_at) / Fold change /veh TUBB4B (11761932_at) / RFU CAPN14 (11732068_a_at) / Fold change /veh CAPN14 (11732068_a_at) / RFU TMCC2 (11721928_a_at) / Fold change /veh TMCC2 (11721928_a_at) / RFU IRGQ (11745062_a_at) / Fold change /veh IRGQ (11745062_a_at) / RFU FAM174B (11720279_a_at) / Fold change /veh FAM174B (11720279_a_at) / RFU TMPRSS4 (11748680_a_at) / Fold change /veh TMPRSS4 (11748680_a_at) / RFU FAM212B (11763350_a_at) / Fold change /veh FAM212B (11763350_a_at) / RFU PLEKHG5 (11743358_a_at) / Fold change /veh PLEKHG5 (11743358_a_at) / RFU ZSCAN30 (11745921_a_at) / Fold change /veh ZSCAN30 (11745921_a_at) / RFU CMKLR1 (11741424_a_at) / Fold change /veh CMKLR1 (11741424_a_at) / RFU LOC101060620 /// MAPK8IP1 (11723275_at) / Fold change /veh LOC101060620 /// MAPK8IP1 (11723275_at) / RFU SPTSSB (11747773_x_at) / Fold change /veh SPTSSB (11747773_x_at) / RFU PRSS12 (11739890_at) / Fold change /veh PRSS12 (11739890_at) / RFU BIN1 (11741810_x_at) / Fold change /veh BIN1 (11741810_x_at) / RFU WNT11 (11732464_a_at) / Fold change /veh WNT11 (11732464_a_at) / RFU C10orf10 (11716521_a_at) / Fold change /veh C10orf10 (11716521_a_at) / RFU C5orf56 (11738089_at) / Fold change /veh C5orf56 (11738089_at) / RFU CYB561 (11721691_x_at) / Fold change /veh CYB561 (11721691_x_at) / RFU ANKRD19P (11752326_a_at) / Fold change /veh ANKRD19P (11752326_a_at) / RFU OR2T12 /// OR2T33 /// OR2T8 (11738714_s_at) / Fold change /veh OR2T12 /// OR2T33 /// OR2T8 (11738714_s_at) / RFU VCAN (11748164_a_at) / Fold change /veh VCAN (11748164_a_at) / RFU JSRP1 (11732532_at) / Fold change /veh JSRP1 (11732532_at) / RFU KRTAP10-11 (11738290_x_at) / Fold change /veh KRTAP10-11 (11738290_x_at) / RFU MYO3A (11730013_a_at) / Fold change /veh MYO3A (11730013_a_at) / RFU EBF3 (11725865_a_at) / Fold change /veh EBF3 (11725865_a_at) / RFU CAMK2N1 (11719241_x_at) / Fold change /veh CAMK2N1 (11719241_x_at) / RFU C5orf56 (11738088_a_at) / Fold change /veh C5orf56 (11738088_a_at) / RFU OLFML3 (11715873_a_at) / Fold change /veh OLFML3 (11715873_a_at) / RFU LOC100653217 /// NTM (11731650_a_at) / Fold change /veh LOC100653217 /// NTM (11731650_a_at) / RFU MAPK11 (11762145_a_at) / Fold change /veh MAPK11 (11762145_a_at) / RFU FIZ1 (11724087_x_at) / Fold change /veh FIZ1 (11724087_x_at) / RFU OASL (11726364_x_at) / Fold change /veh OASL (11726364_x_at) / RFU SOX15 (11748057_x_at) / Fold change /veh SOX15 (11748057_x_at) / RFU CD79A (11719716_a_at) / Fold change /veh CD79A (11719716_a_at) / RFU HIST1H1D (11736915_at) / Fold change /veh HIST1H1D (11736915_at) / RFU CASKIN2 (11723855_a_at) / Fold change /veh CASKIN2 (11723855_a_at) / RFU LOC730098 (11760151_x_at) / Fold change /veh LOC730098 (11760151_x_at) / RFU OR4N2 (11742367_at) / Fold change /veh OR4N2 (11742367_at) / RFU PRRT2 (11749266_a_at) / Fold change /veh PRRT2 (11749266_a_at) / RFU SNX32 (11753110_a_at) / Fold change /veh SNX32 (11753110_a_at) / RFU CDHR5 (11726645_a_at) / Fold change /veh CDHR5 (11726645_a_at) / RFU RCAN1 (11760418_a_at) / Fold change /veh RCAN1 (11760418_a_at) / RFU FAM167A (11723789_a_at) / Fold change /veh FAM167A (11723789_a_at) / RFU FAM26E (11764081_at) / Fold change /veh FAM26E (11764081_at) / RFU ISYNA1 (11749810_s_at) / Fold change /veh ISYNA1 (11749810_s_at) / RFU ACY1 (11761880_at) / Fold change /veh ACY1 (11761880_at) / RFU 11764098_at / Fold change /veh 11764098_at / RFU SAMD14 (11745864_x_at) / Fold change /veh SAMD14 (11745864_x_at) / RFU NPB (11741838_a_at) / Fold change /veh NPB (11741838_a_at) / RFU TMPRSS6 (11731388_a_at) / Fold change /veh TMPRSS6 (11731388_a_at) / RFU KRTAP10-2 (11738614_at) / Fold change /veh KRTAP10-2 (11738614_at) / RFU ARHGAP8 /// PRR5-ARHGAP8 (11727945_x_at) / Fold change /veh ARHGAP8 /// PRR5-ARHGAP8 (11727945_x_at) / RFU KRTAP5-7 /// NADSYN1 (11734609_at) / Fold change /veh KRTAP5-7 /// NADSYN1 (11734609_at) / RFU RASL12 (11751679_a_at) / Fold change /veh RASL12 (11751679_a_at) / RFU CDKN2B (11736163_a_at) / Fold change /veh CDKN2B (11736163_a_at) / RFU PRF1 (11729649_at) / Fold change /veh PRF1 (11729649_at) / RFU, ZNF638 /// ZNF638-IT1 / Fold change vs veh, ZNF638 /// ZNF638-IT1 / RFU, PANK3 / Fold change vs veh, PANK3 / RFU, SH3YL1 / Fold change vs veh, SH3YL1 / RFU, ZEB2 / Fold change vs veh, ZEB2 / RFU, NRIP1 / Fold change vs veh, NRIP1 / RFU, PTTG1IP / Fold change vs veh, PTTG1IP / RFU, CAPN2 / Fold change vs veh, CAPN2 / RFU, MED14 / Fold change vs veh, MED14 / RFU, SNORA58 / Fold change vs veh, SNORA58 / RFU, C1orf63 / Fold change vs veh, C1orf63 / RFU, LRRFIP1 / Fold change vs veh, LRRFIP1 / RFU, NDUFAF7 / Fold change vs veh, NDUFAF7 / RFU, SLC12A2 / Fold change vs veh, SLC12A2 / RFU, IBTK / Fold change vs veh, IBTK / RFU, ESF1 / Fold change vs veh, ESF1 / Fold change vs veh, TMEM50B / RFU, TAOK1 / Fold change vs veh, TAOK1 / RFU, ACBD3 / Fold change vs veh, ACBD3 / RFU, TMA16 / Fold change vs veh, TMA16 / RFU, RWDD3 / Fold change vs veh, RWDD3 / RFU, BCAT1 / Fold change vs veh, BCAT1 / RFU, EDEM3 / Fold change vs veh, EDEM3 / RFU, TMEM33 / Fold change vs veh, TMEM33 / RFU, WDR75 / Fold change vs veh, WDR75 / RFU, AHCTF1 / Fold change vs veh, AHCTF1 / RFU, TFRC / Fold change vs veh, TFRC / RFU, ZDHHC17 / Fold change vs veh, ZDHHC17 / RFU, NOM1 / Fold change vs veh, NOM1 / RFU, ARL8B / Fold change vs veh, ARL8B / RFU, ZBTB11 / Fold change vs veh, ZBTB11 / RFU, TAMM41 / Fold change vs veh, TAMM41 / RFU, KIAA1704 /// LOC100996395 / Fold change vs veh, KIAA1704 /// LOC100996395 / RFU, ING1 / Fold change vs veh, ING1 / RFU, TRMT61B / Fold change vs veh, TRMT61B / RFU, FUBP3 / Fold change vs veh, FUBP3 / RFU, TP53 / Fold change vs veh, TP53 / RFU, TNKS2 / Fold change vs veh, TNKS2 / RFU, ZFP14 / Fold change vs veh, ZFP14 / RFU, ACTR2 / Fold change vs veh, ACTR2 / RFU, PPP3R1 / Fold change vs veh, PPP3R1 / RFU, PIK3R1 / Fold change vs veh, PIK3R1 / RFU, HNRNPA1 / Fold change vs veh, HNRNPA1 / RFU, RNF170 / Fold change vs veh, RNF170 / RFU, ZNF28 / Fold change vs veh, ZNF28 / RFU, RNGTT / Fold change vs veh, RNGTT / RFU, OGT / Fold change vs veh, OGT / RFU, BRD1 / Fold change vs veh, BRD1 / RFU, MARS / Fold change vs veh, MARS / RFU, ZNF655 / Fold change vs veh, ZNF655 / RFU, FAHD1 / Fold change vs veh, FAHD1 / RFU, BDP1 / Fold change vs veh, BDP1 / RFU, LRRCC1 / Fold change vs veh, LRRCC1 / RFU, ARID1A / Fold change vs veh, ARID1A / RFU, ZNF146 / Fold change vs veh, ZNF146 / RFU, ZNF330 / Fold change vs veh, ZNF330 / RFU, GPN3 / Fold change vs veh, GPN3 / RFU, C9orf123 / Fold change vs veh, C9orf123 / RFU, N4BP2L2 / Fold change vs veh, N4BP2L2 / RFU, ARFIP1 / Fold change vs veh, ARFIP1 / RFU, FAM179B / Fold change vs veh, FAM179B / RFU, BCL10 / Fold change vs veh, BCL10 / RFU, UHRF1BP1L / Fold change vs veh, UHRF1BP1L / RFU, BET1 / Fold change vs veh, BET1 / RFU, CNOT2 / Fold change vs veh, CNOT2 / RFU, ZNF268 / Fold change vs veh, ZNF268 / Fold change vs veh, ZNF507 / RFU, DGCR2 / Fold change vs veh, DGCR2 / RFU, WDSUB1 / Fold change vs veh, WDSUB1 / Fold change vs veh, HSP90B1 /// MIR3652 / RFU, ADSS / Fold change vs veh, ADSS / RFU, GK / Fold change vs veh, GK / RFU, ZNF148 / Fold change vs veh, ZNF148 / RFU, TAF9 / Fold change vs veh, TAF9 / RFU, SLC1A5 / Fold change vs veh, SLC1A5 / RFU, SLMO2 / Fold change vs veh, SLMO2 / RFU, ABCC4 / Fold change vs veh, ABCC4 / RFU, LOC101060439 /// RAP1B / Fold change vs veh, LOC101060439 /// RAP1B / RFU, RFX7 / Fold change vs veh, RFX7 / RFU, GTPBP10 / Fold change vs veh, GTPBP10 / RFU, CNEP1R1 / Fold change vs veh, CNEP1R1 / RFU, BIVM-ERCC5 /// ERCC5 / Fold change vs veh, BIVM-ERCC5 /// ERCC5 / RFU, ILF3 / Fold change vs veh, ILF3 / RFU 11762660_at / Fold change /veh 11762660_at / RFU VCAN (11757783_s_at) / Fold change /veh VCAN (11757783_s_at) / RFU DDX43 (11728927_at) / Fold change /veh DDX43 (11728927_at) / RFU KRT8 (11758188_x_at) / Fold change /veh KRT8 (11758188_x_at) / RFU NKD1 (11759106_at) / Fold change /veh NKD1 (11759106_at) / RFU SRD5A1 (11742802_a_at) / Fold change /veh SRD5A1 (11742802_a_at) / RFU TPSAB1 /// TPSB2 (11721975_s_at) / Fold change /veh TPSAB1 /// TPSB2 (11721975_s_at) / RFU GSTM3 (11746129_a_at) / Fold change /veh GSTM3 (11746129_a_at) / RFU IL23R (11737362_x_at) / Fold change /veh IL23R (11737362_x_at) / RFU TMEM51 (11727254_a_at) / Fold change /veh TMEM51 (11727254_a_at) / RFU PIWIL2 (11732686_x_at) / Fold change /veh PIWIL2 (11732686_x_at) / RFU ORM1 (11744905_x_at) / Fold change /veh ORM1 (11744905_x_at) / RFU CCDC152 (11743942_at) / Fold change /veh CCDC152 (11743942_at) / RFU ECM1 (11717891_a_at) / Fold change /veh ECM1 (11717891_a_at) / RFU IL23R (11748794_a_at) / Fold change /veh IL23R (11748794_a_at) / RFU TNFAIP8L3 (11732012_x_at) / Fold change /veh TNFAIP8L3 (11732012_x_at) / RFU MBOAT4 (11741988_at) / Fold change /veh MBOAT4 (11741988_at) / RFU 11764193_at / Fold change /veh 11764193_at / RFU TMEM53 (11763286_at) / Fold change /veh TMEM53 (11763286_at) / RFU MAGEB2 (11727129_at) / Fold change /veh MAGEB2 (11727129_at) / RFU TMEM200A (11744735_a_at) / Fold change /veh TMEM200A (11744735_a_at) / RFU CCDC152 (11751479_a_at) / Fold change /veh CCDC152 (11751479_a_at) / RFU FAM211A (11726209_a_at) / Fold change /veh FAM211A (11726209_a_at) / RFU RGS16 (11746705_a_at) / Fold change /veh RGS16 (11746705_a_at) / RFU VCAN (11755009_s_at) / Fold change /veh VCAN (11755009_s_at) / RFU RHOB (11743442_s_at) / Fold change /veh RHOB (11743442_s_at) / RFU RGS16 (11720943_a_at) / Fold change /veh RGS16 (11720943_a_at) / RFU RGS16 (11720944_at) / Fold change /veh RGS16 (11720944_at) / RFU, VPS4B / Fold change vs veh, VPS4B / RFU, CREB1 / Fold change vs veh, CREB1 / RFU, DNAJC13 / Fold change vs veh, DNAJC13 / RFU, GNAQ / Fold change vs veh, GNAQ / RFU, CDK5R1 / Fold change vs veh, CDK5R1 / RFU, ZRANB3 / Fold change vs veh, ZRANB3 / RFU, CUL4A / Fold change vs veh, CUL4A / RFU, CCNY / Fold change vs veh, CCNY / RFU, UFL1 / Fold change vs veh, UFL1 / RFU, COG3 / Fold change vs veh, COG3 / RFU, DIAPH2 / Fold change vs veh, DIAPH2 / RFU, SKA2 / Fold change vs veh, SKA2 / RFU, AFF3 / Fold change vs veh, AFF3 / RFU, LMF1 / Fold change vs veh, LMF1 / RFU, IPO11 / Fold change vs veh, IPO11 / RFU, DFFB / Fold change vs veh, DFFB / RFU, FOXP1 / Fold change vs veh, FOXP1 / RFU, CARD8 / Fold change vs veh, CARD8 / RFU, STRN3 / Fold change vs veh, STRN3 / RFU, ADK / Fold change vs veh, ADK / RFU, RASSF2 / Fold change vs veh, RASSF2 / RFU, WIPF1 / Fold change vs veh, WIPF1 / RFU, LARP1B / Fold change vs veh, LARP1B / RFU, RASA1 / Fold change vs veh, RASA1 / RFU, RB1 / Fold change vs veh, RB1 / RFU, PPFIA1 / Fold change vs veh, PPFIA1 / RFU, MAT2A / Fold change vs veh, MAT2A / RFU, CCT5 / Fold change vs veh, CCT5 / RFU, WDR92 / Fold change vs veh, WDR92 / RFU, CUX1 / Fold change vs veh, CUX1 / RFU, TTC7A / Fold change vs veh, TTC7A / RFU, TMEM135 / Fold change vs veh, TMEM135 / RFU, DEPTOR / Fold change vs veh, DEPTOR / RFU, CPM / Fold change vs veh, CPM / RFU, DNAJB6 / Fold change vs veh, DNAJB6 / RFU, CACNA2D3 / Fold change vs veh, CACNA2D3 / RFU, DTX4 / Fold change vs veh, DTX4 / RFU, TFCP2 / Fold change vs veh, TFCP2 / RFU, GMCL1 /// GMCL1P1 / Fold change vs veh, GMCL1 /// GMCL1P1 / RFU, AEBP2 / Fold change vs veh, AEBP2 / RFU, SNHG1 /// SNORD22 /// SNORD25 /// SNORD26 /// SNORD27 /// SNORD28 /// SNORD29 /// SNORD31 / Fold change vs veh, SNHG1 /// SNORD22 /// SNORD25 /// SNORD26 /// SNORD27 /// SNORD28 /// SNORD29 /// SNORD31 / Fold change (Aza/veh), C12orf56 (ProbeSet 11735607_a_at) / Fold change (ACY-1035/veh), C12orf56 (ProbeSet 11735607_a_at) / Fold change (Aza/veh), FGFR1OP (ProbeSet 11751329_s_at) / Fold change (ACY-1035/veh), FGFR1OP (ProbeSet 11751329_s_at) / Fold change (Aza/veh), VPS36 (ProbeSet 11739960_a_at) / Fold change (ACY-1035/veh), VPS36 (ProbeSet 11739960_a_at) / RFU SYPL1 (11715823_x_at) / Fold change /veh SYPL1 (11715823_x_at) / RFU IGFBP7 (11715501_s_at) / Fold change /veh IGFBP7 (11715501_s_at) / RFU REEP3 (11722064_at) / Fold change /veh REEP3 (11722064_at) / RFU IGLL1 (11728026_x_at) / Fold change /veh IGLL1 (11728026_x_at): dose or concentration left out as unconfirmed. As to conditions: MV-4-11 cells, 48 hours.

With `Nc1ncn([C@@H]2O[C@H](CO)[C@@H](O)[C@H]2O)c(=O)n1` [azacitidine], the “Fold change /veh TUBB4B (11761932_at)” value is listed as 1.00.

The record behind these values is publication PMC5218480 (PLoS ONE, 2017).
